Measurements from publication PMC5742115, “Pharmacophore Modeling and in Silico/in Vitro Screening for Human Cytochrome P450 11B1 and Cytochrome P450 11B2 Inhibitors” (Frontiers in Chemistry, 2017).
“And” between values parts separate entries of the source, which are not always exact repeats. Identical values can stand only once.

How the values were obtained:
Human CYP17 [1] = target: T1, Human CYP17 (Homo sapiens, UniProt P05093); set-up: method as in Sergejew and Hartmann, 1994; conditions: reference inhibitor; ref Sergejew and Hartmann, 1994; cited from earlier work
T1 construct: made in house; host or cells: Escherichia coli (5,000 g sediment of the homogenate)
T1 sequence (P05093 1-508): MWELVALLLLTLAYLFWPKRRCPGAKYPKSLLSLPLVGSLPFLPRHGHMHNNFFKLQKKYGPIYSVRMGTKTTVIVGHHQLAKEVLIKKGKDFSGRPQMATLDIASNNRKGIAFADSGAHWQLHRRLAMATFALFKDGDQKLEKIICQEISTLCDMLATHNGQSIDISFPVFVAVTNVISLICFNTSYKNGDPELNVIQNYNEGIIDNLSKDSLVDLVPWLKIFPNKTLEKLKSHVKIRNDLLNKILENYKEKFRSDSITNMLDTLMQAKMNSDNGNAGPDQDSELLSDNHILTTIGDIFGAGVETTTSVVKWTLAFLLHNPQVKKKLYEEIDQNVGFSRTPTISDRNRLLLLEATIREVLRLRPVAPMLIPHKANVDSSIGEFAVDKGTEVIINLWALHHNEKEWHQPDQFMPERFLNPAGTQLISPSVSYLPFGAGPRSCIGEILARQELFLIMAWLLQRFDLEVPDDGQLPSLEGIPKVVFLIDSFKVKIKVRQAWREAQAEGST

human CYP11B2 = target: T2, human CYP11B2 (Homo sapiens, UniProt P19099); assay: CYP11B2 inhibition assay in V79MZh cells; assay type: cell-based; conditions: for inhibition at 10 µM: at 10 μM concentration, V79MZh cells; for IC50: human CYP11B2 expressed in hamster V79MZh cells, mean of at least three experiments
T2 construct: expressed in transfected cells; host or cells: hamster V79MZh cells
T2 sequence (P19099 25-503): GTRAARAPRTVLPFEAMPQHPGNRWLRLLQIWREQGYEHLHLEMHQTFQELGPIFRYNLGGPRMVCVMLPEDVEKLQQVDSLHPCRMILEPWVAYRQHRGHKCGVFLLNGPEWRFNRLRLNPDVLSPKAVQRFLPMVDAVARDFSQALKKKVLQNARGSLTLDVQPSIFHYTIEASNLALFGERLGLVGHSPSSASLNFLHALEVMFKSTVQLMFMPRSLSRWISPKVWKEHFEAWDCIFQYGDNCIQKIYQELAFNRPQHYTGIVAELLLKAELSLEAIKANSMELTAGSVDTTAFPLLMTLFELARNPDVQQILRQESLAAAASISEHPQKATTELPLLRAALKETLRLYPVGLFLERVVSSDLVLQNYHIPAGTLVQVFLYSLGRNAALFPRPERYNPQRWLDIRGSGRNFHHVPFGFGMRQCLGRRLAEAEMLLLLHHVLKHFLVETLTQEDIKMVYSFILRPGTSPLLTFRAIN
Method: (§1) The selected potential inhibitors were dissolved in DMSO at a concentration of 10 mM to generate stock solutions. Various aliquots were then made from fresh stock solutions and each aliquot was tested only once.
(§2) The selected hits were evaluated for their inhibition of human CYP11B1 and CYP11B2 enzymes expressed in hamster V79MZh cells. Approximately […] V79MZh cells were cultured in 24-well cell culture plates for 24 h. The area of each well was 1.9 cm^2. The cells were exposed to various concentrations of inhibitor solutions. The reactions were started by incubating the cells with [^3H]11-deoxycorticosterone. The incubation time for CYP11B1 cells was 15–60 and 50–120 min for CYP11B2 cells. The reactions were stopped by extracting the supernatant with cold ethyl acetate at 4°C. Samples were mixed (10 min), and centrifuged (12,500 rpm). The organic (upper) layer was separated into fresh Eppendorf tubes and dried. The steroids were re-dissolved in methanol-water (65–35%) and were analyzed by radio-HPLC (Denner et al., [1995a]; Ehmer et al., [2002]).

Human CYP17 [2] = target: T1, Human CYP17; assay: CYP17 inhibition assay; assay type: biochemical; conditions: at 10 μM concentration; for CYP17 inhibition: human CYP17 from Escherichia coli, n.i. = not inhibited
Method: The inhibition of CYP17 was investigated using the 5,000 g sediment of homogenized Escherichia coli (Ehmer et al., [2000]). Human CYP17 along with NADPH-P450 reductase was used to perform the assay as described previously. The incubation time for the reaction was 30 min at 37°C. The reaction was started by adding [^3H]-progesterone, and was quenched with 1 M HCl. The reaction mixture was extracted twice with ethyl acetate at 4°C in order to avoid impurities. The samples were dried, prepared with methanol, and analyzed with radio-HPLC. DSMO was used as negative control.

human CYP11B1 = target: T3, human CYP11B1 (Homo sapiens, UniProt P15538); assay: CYP11B1 inhibition assay in V79MZh cells; assay type: cell-based; conditions: for inhibition at 10 µM: at 10 μM concentration, V79MZh cells; for IC50: human CYP11B1 expressed in hamster V79MZh cells, mean of at least three experiments
T3 construct: expressed in transfected cells; host or cells: hamster V79MZh cells
T3 sequence (P15538 25-503): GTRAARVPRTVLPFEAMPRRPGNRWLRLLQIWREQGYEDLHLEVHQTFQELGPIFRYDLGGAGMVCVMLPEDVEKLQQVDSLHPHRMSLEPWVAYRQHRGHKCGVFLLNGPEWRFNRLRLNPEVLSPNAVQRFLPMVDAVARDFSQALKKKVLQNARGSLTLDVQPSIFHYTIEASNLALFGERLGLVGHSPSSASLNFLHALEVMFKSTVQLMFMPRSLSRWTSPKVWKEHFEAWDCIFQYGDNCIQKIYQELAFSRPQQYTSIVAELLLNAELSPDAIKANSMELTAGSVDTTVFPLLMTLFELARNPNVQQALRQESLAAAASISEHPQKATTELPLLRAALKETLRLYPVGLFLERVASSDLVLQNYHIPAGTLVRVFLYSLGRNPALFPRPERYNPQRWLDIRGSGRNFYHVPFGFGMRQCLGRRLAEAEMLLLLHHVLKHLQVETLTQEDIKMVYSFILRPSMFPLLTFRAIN
Method: as §1, §2

| SMILES | inhibition at 10 µM (human CYP11B2) | IC50 (human CYP11B2) | inhibition at 10 µM (Human CYP17 [2]) | CYP17 inhibition (Human CYP17 [2]) | inhibition at 10 µM (human CYP11B1) | IC50 (human CYP11B1) | selectivity factor for CYP11B1 inhibition over CYP11B2 (human CYP11B1; from IC50 values) | IC50 (Human CYP17 [1]) |
| --- | --- | --- | --- | --- | --- | --- | --- | --- |
| C[C@]12CC[C@H](O)CC1=CC[C@@H]1[C@@H]2CC[C@]2(C)C(c3cccnc3)=CC[C@@H]12 [Abiraterone] | – | – | – | – | – | – | – | 100 nM |
| CC(C)CC(=O)Nc1ccc(Cc2ccncc2)cc1 [Compound 8] | > 50% | 2770 ± 480 nM | ≤ 3% | n.i.^e | > 50% | 3040 ± 720 nM | – | – |
| CC(OCc1ccc(F)cc1)n1ccnc1 (centres unmarked) [Compound 9] | > 50% | 80 ± 5 nM | ≤ 3% | n.i. | > 50% | 210 ± 40 nM | – | – |
| COc1cc(Cl)c(S(=O)(=O)n2ccnc2)cc1Cl [Compound 10] | > 50% | 110 ± 20 nM | ≤ 3% | n.i. | > 50% | 130 ± 20 nM | – | – |

Now from value to compound, other results behind:

| inhibition at 10 µM (human CYP11B2) | IC50 (human CYP11B2) | inhibition at 10 µM (Human CYP17 [2]) | CYP17 inhibition (Human CYP17 [2]) | inhibition at 10 µM (human CYP11B1) | IC50 (human CYP11B1) | selectivity factor for CYP11B1 inhibition over CYP11B2 (human CYP11B1; from IC50 values) | SMILES | IC50 (Human CYP17 [1]) |
| --- | --- | --- | --- | --- | --- | --- | --- | --- |
| – | 15600 ± 8450 nM | – | – | – | 2500 nM and 2520 nM | 6 | CN(C)C(c1ccccc1)c1nnnn1-c1ccc(Cl)cc1 (centres unmarked) [Compound 11] | – |
| – | 1100 nM and 1120 nM | ≤ 3% | n.i. | 33 ± 6% | – | – | c1ccc2c(-c3nn4cnnc4s3)cccc2c1 [Compound 12] | – |
